Experimental data from patent publication US8293724B2, “Therapeutic applications of fatty acid amide hydrolase inhibitors” (The United States of America, as represented by the …, priority 2007, dated 2012).
“Also recorded” adds a separate entry of the source.

Experiments:
[1] = system: spontaneously hypertensive rat (SHR); assay: Hemodynamic measurements in anesthetized spontaneously hypertensive rats; type: in vivo; conditions: for change in MAP: n=4
Method: (§1) Anandamide, the CB1 receptor antagonist AM251, and the anandamide transport inhibitors AM404 and OMDM-2 were obtained from Tocris; and the CB1 antagonist SR141716 and the CB2 antagonist SR144528 were from the National Institute on Drug Abuse drug supply program. Drugs were mixed in corn oil and sonicated for 5 minutes at 4° C. The mixture was added to 4 parts of Pluronic F68 (Sigma-Aldrich) solution (40 mg/mL) dissolved in water and sonicated to obtain a stable suspension for bolus intravenous injections.
Rats were obtained from Harlan (Indianapolis, Ind.). Male, 8- to 10-month-old SHR, age-matched male Wistar-Kyoto rats (WKY), and 8- to 10-week-old male Sprague-Dawley rats were maintained on standard rat chow and water ad libitum. Dahl salt-sensitive and salt-resistant rats (male, Rapp strain, 6 weeks old) were maintained for 4 weeks on rat chow containing either 0.12% or 8% NaCl. […] Hypertension was induced in Sprague-Dawley rats by chronic infusion of angiotensin II (60 ng/min) via an osmotic minipump (Imig et al. Hypertension 2002; 39: 690-694. Rats were used 10 to 12 days after implantation of the minipump.
(§2) For hemodynamic measurements, rats were anesthetized with pentobarbital sodium (60 mg/kg IP) and tracheotomized to facilitate breathing. Animals were placed on controlled heating pads, and core temperature, measured via a rectal probe, was maintained at 37° C. A microtip pressure-volume catheter (SPR-838; Millar Instruments) was inserted into the right carotid artery and advanced into the left ventricle (LV) under pressure control as described previously. Polyethylene cannulae (P50) were inserted into the right femoral artery and vein for measurement of mean arterial pressure (MAP) and administration of drugs, respectively. […] Heart rate, maximal LV systolic pressure, MAP, and maximal slope of systolic pressure increment (+dP/dt) were computed with a cardiac pressure-volume analysis program (PVAN2.9; Millar). Cardiac output calculated and corrected according to in vitro and in vivo volume calibrations with PVAN2.918 was normalized to body weight (cardiac index [CI]). Total peripheral resistance index (TPRI) was calculated by the equation TPRI=MAP/CI. In 3 experiments, drugs were microinjected into the fourth cerebral ventricle as described by Ramirez-Gonzalez et al. Circ Res. 1983; 53, 150-157.
(§3) Time-dependent variables were analyzed by ANOVA followed by the Dunnett post hoc test. In other cases, the Student t test was used, as appropriate. Values with P<0.05 were considered statistically significant.

Wistar-Kyoto rats (WKY) = assay: Hemodynamic measurements in normotensive Wistar-Kyoto rats; type: in vivo, rat
Method: as §1
(§4) Rats were obtained from Harlan (Indianapolis, Ind.). Male, 8- to 10-month-old SHR, age-matched male Wistar-Kyoto rats (WKY), and 8- to 10-week-old male Sprague-Dawley rats were maintained on standard rat chow and water ad libitum. Dahl salt-sensitive and salt-resistant rats (male, Rapp strain, 6 weeks old) were maintained for 4 weeks on rat chow containing either 0.12% or 8% NaCl. Systolic blood pressure monitored daily by the tail-cuff technique was 120±11 mm Hg (salt-sensitive, 0.12% NaCl), 180±14 mm Hg (salt-sensitive, 8% NaCl), and 118±9 mm Hg (salt-resistant, 8% NaCl). Hypertension was induced in Sprague-Dawley rats by chronic infusion of angiotensin II (60 ng/min) via an osmotic minipump (Imig et al. Hypertension 2002; 39: 690-694. Rats were used 10 to 12 days after implantation of the minipump.
as §2, §3

[2] = system: angiotensin II-treated hypertensive rats; assay: Blood pressure in angiotensin II-treated hypertensive rats; type: in vivo, rat
Excerpt: as §4
(§5) For hemodynamic measurements, rats were anesthetized with pentobarbital sodium (60 mg/kg IP) and tracheotomized to facilitate breathing. Animals were placed on controlled heating pads, and core temperature, measured via a rectal probe, was maintained at 37° C. […] Cardiac output calculated and corrected according to in vitro and in vivo volume calibrations with PVAN2.918 was normalized to body weight (cardiac index [CI]). Total peripheral resistance index (TPRI) was calculated by the equation TPRI=MAP/CI. […]

FAAH = biological target: T1, FAAH (Mus musculus, UniProt O08914); assay: FAAH activity in brain and liver homogenates following in vivo administration; design: species or system mice; conditions: mouse
T1 construct: the brain and liver removed, and tissue homogenates prepared as described above; from tissue; host or cells: mouse brain and liver homogenates after in vivo dosing
T1 sequence (O08914 1-579): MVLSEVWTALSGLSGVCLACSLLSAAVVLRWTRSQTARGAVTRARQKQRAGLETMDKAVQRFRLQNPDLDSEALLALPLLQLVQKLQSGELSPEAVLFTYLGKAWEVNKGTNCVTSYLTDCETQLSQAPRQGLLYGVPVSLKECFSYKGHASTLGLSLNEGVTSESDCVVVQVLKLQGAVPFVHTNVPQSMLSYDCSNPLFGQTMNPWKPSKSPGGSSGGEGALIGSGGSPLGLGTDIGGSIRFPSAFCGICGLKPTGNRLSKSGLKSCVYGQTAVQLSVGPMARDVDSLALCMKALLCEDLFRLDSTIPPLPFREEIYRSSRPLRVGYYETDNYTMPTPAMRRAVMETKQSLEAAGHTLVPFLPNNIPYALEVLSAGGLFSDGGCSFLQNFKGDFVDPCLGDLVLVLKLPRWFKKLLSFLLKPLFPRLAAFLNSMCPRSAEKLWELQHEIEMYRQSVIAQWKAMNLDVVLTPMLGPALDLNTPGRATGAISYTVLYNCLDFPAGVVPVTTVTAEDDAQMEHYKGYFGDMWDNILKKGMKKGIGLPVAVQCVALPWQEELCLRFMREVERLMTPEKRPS
Method: For the experiments illustrated in FIG. 3, FAAH activity was assessed through a different method not requiring TLC separation, as described by Jonsson et al: Br. J. Pharmacol. 133:1263-1275, 1997. […] The mice were sacrificed one hour later, the brain and liver removed, and tissue homogenates prepared as described above. [^3H]Anandamide labeled on the ethanolamide moiety was added to the homogenate and incubated at 37° C. for 10 min. The homogenate was then extracted twice with chloroform:methanol 1:1 and the radioactivity in the aqueous phase (containing the released ethanolamide) was counted.

[3] = system: normotensive controls (Sprague-Dawley rats); assay: Blood pressure in normotensive controls of angiotensin II-treated rats; type: in vivo, rat; conditions: URB597, normotensive controls of angiotensin II-treated rats
Excerpt: as §4, §5

[4] = Non-fasting blood glucose in SHR and WKY; conditions: URB597 10 mg/kg i.p., n=4
[5] = system: male DIO mice (wild-type C57Bl6/J on high-fat diet); assay: Intraperitoneal glucose tolerance test in wild-type mice with diet-induced obesity; type: in vivo; conditions: URB597 10 mg/kg i.p., 60 min before glucose 1.5 g/kg i.p., 10 mg/kg
Method: (§6) Male C57Bl6/J mice, wild-type or liver-specific CB1 receptor knockout, were kept on a diet containing 60% of calories as fat (Research Diets Inc) for 14 weeks, by which time both strains have become fat due to increased adipose mass. […] Sixty minutes later the mice received 1.5 g/kg glucose i.p. and blood glucose levels were monitored for 2 hours.

[6] = system: liver-specific CB1 receptor knockout mice; assay: Intraperitoneal glucose tolerance test in liver-specific CB1 receptor knockout mice on high-fat diet; type: in vivo; conditions: URB597 10 mg/kg i.p., liver-specific CB1 knockout mice on HFD
Method: as §6

SMILES: CCCCC/C=C\C/C=C\C/C=C\C/C=C\CCCC(=O)Nc1ccc(O)cc1 [AM404]
- change in MAP ([1]; AM404 10 mg/kg, SHR): −63±19 mm Hg
- change in MAP (Wistar-Kyoto rats (WKY); AM404 10 mg/kg): no significant change

SMILES: CCCCCCC(C)(C)c1cc(O)c2c(c1)OC(C)(C)[C@@H]1CC=C(CO)C[C@@H]21 [HU210]
- hypotensive EC50 ([1]; SHR, n=6): 1.5 µg/kg
- maximal hypotensive effect ([1]; SHR, n=6): −108±11 mm Hg
- hypotensive EC50 (Wistar-Kyoto rats (WKY); n=6): 5.9 µg/kg
- maximal hypotensive effect (Wistar-Kyoto rats (WKY); n=6): −39±14 mm Hg

SMILES: CCCCCCCC/C=C\CCCCCCCC(=O)N[C@@H](CO)Cc1ccc(O)cc1 [OMDM-2]
- change in MAP ([1]; OMDM-2 5 mg/kg, SHR): −39±10 mm Hg
- change in MAP (Wistar-Kyoto rats (WKY); OMDM-2 5 mg/kg): no significant change

SMILES: NC(=O)c1cccc(-c2cccc(OC(=O)NC3CCCCC3)c2)c1 [URB597]
- blood pressure ([2]; URB597, angiotensin II-treated hypertensive rats): lowered blood pressure
- ED50 ([1]; Rattus norvegicus, dose-response studies, n=3, read-out: hypotensive ED50): 1.7 mg/kg
- hypotensive response after pretreatment with the VR1 antagonist capsazepine ([1]; SHR): not affected by capsazepine pretreatment
- LV systolic pressure ([1]; URB597 10 mg/kg IV, SHR): decreased
- TPRI ([1]; URB597 10 mg/kg IV, SHR): decreased
- arterial pressure ([1]; URB597 10 mg/kg IV, SHR): decreased arterial pressure to normotensive levels
- dP/dt ([1]; URB597 10 mg/kg IV, SHR): decreased
- cardiac contractility (pressure/volume relationship) ([1]; URB597, SHR): decrease in cardiac contractility
- effects of URB597 in the hypertensive animals in the presence of CB1 antagonists ([1]; hypertensive animals, CB1 antagonists): could be prevented by CB1 antagonists
- inhibition of FAAH activity in the liver (FAAH; in vivo, 10 mg/kg): significantly inhibits FAAH activity in the liver
- inhibition of FAAH in brain (FAAH; in vivo, 10 mg/kg): near complete inhibition
- inhibition at 10 mg/kg (FAAH; read-out: inhibition of FAAH in liver): > 90%
- blood pressure [3]: not in their normotensive controls
- non-fasting blood glucose after treatment ([4]; SHR, from 104.0±7.4): 144.0 ± 9.6 mg/dL
- non-fasting blood glucose after treatment ([4]; WKY, from 90.0±7.2): 135.3 ± 12.9 mg/dL
- hemodynamic effects (Wistar-Kyoto rats (WKY); URB597 10 mg/kg IV): no detectable hemodynamic effects
- glucose intolerance [5]: marked increase in their glucose intolerance; also recorded: increases glucose intolerance
- glucose tolerance [6]: failed to affect glucose tolerance

SMILES: CCCCC/C=C\C/C=C\C/C=C\C/C=C\CCCC(=O)NCCO [anandamide]
- anandamide-induced hypotension ([2]; rats with angiotensin II-induced hypertension): potentiated
- hypotensive response after pretreatment with the VR1 antagonist capsazepine ([1]; SHR): not affected by capsazepine pretreatment
- CI ([1]; anandamide 10 mg/kg, SHR): decreases
- TPRI ([1]; anandamide 10 mg/kg, SHR): decreases
- blood pressure ([1]; anandamide 10 mg/kg, SHR): sustained decrease in blood pressure to near normotensive levels
- cardiac contractility (dP/dt, LV systolic pressure) ([1]; anandamide 10 mg/kg, SHR): decreases
- heart rate ([1]; anandamide 10 mg/kg, SHR): decreases
- blood pressure (Wistar-Kyoto rats (WKY); anandamide 10 mg/kg): modest and short-lasting
- cardiac contractility (Wistar-Kyoto rats (WKY); anandamide 10 mg/kg): modest and short-lasting
- duration of decrease in blood pressure and cardiac contractility (Wistar-Kyoto rats (WKY); anandamide 10 mg/kg): < 5 min
- other hemodynamic changes (Wistar-Kyoto rats (WKY); anandamide 10 mg/kg): without other hemodynamic changes
